Measured values published in ChEMBL document CHEMBL3046330, “Synthesis and biological activity of hydrazidehydrazones and their corresponding 3-acetyl-2,5-disubstituted-2,3-dihydro-1,3,4-oxadiazoles” (Med Chem Res, 2012).
Converted amounts (≈) assume the structure as drawn. The source made the active and inactive calls. No cut-off for these calls is given here.

What was measured:
Pichia kudriavzevii = assay: Antifungal activity against Pichia kudriavzevii NRRL Y-7179 after 24 hr by NCCLS broth microdilution method; assay type: functional; details: NRRL Y-7179, 24 h
Nakaseomyces glabratus = assay: Antifungal activity against Candida glabrata clinical isolate after 24 hr by NCCLS broth microdilution method; assay type: functional
Candida albicans [1] = assay: Antifungal activity against Candida albicans NRRL Y-12983 after 24 hr by NCCLS broth microdilution method; assay type: functional; details: NRRL Y-12983, 24 h
Cyberlindnera jadinii = assay: Antifungal activity against Cyberlindnera jadinii NRRL Y-900 after 24 hr by NCCLS broth microdilution method; assay type: functional; details: Williopsis jadinii, NRRL Y-900, 24 h
Candida tropicalis [2] = assay: Antifungal activity against Candida tropicalis NRRL Y-12968 after 24 hr by NCCLS broth microdilution method; assay type: functional; details: NRRL Y-12968, 24 h
Candida albicans [3] = assay: Antifungal activity against Candida albicans ATCC 90028 after 24 hr by NCCLS broth microdilution method; assay type: functional; details: ATCC 90028, 24 h
Candida albicans [4] = assay: Antifungal activity against Candida albicans clinical isolate after 24 hr by NCCLS broth microdilution method; assay type: functional
Candida parapsilosis = assay: Antifungal activity against Candida parapsilosis NRRL Y-12696 after 24 hr by NCCLS broth microdilution method; assay type: functional; details: Lodderomyces parapsilosis, NRRL Y-12696, 24 h
RAW264.7 = assay: Cytotoxicity against Mus musculus (mouse) RAW264.7 cells up to 25 ug/ml; assay type: cell-based
Candida albicans [5] = assay: Antifungal activity against Candida albicans clinical isolate at 2000 ug/ml by agar diffusion method; assay type: functional; details: read-out: IZ
SK-OV-3 = assay: Cytotoxicity against Homo sapiens (human) SKOV3 cells assessed as cell viability up to 25 ug/ml after 48 hr by neutral red assay; assay type: functional, cell-based
[6] = Cytotoxicity against Sus scrofa (pig) LLC-PK11 cells assessed as cell viability up to 25 ug/ml after 48 hr by neutral red assay; assay type: cell-based; details: llc-pk11, 48 h
HL-60 [7] = assay: Cytotoxicity against Homo sapiens (human) HL60 cells up to 25 ug/ml; assay type: cell-based
HL-60 [8] = assay: Antioxidant activity in PMA-stimulated Homo sapiens (human) HL60 cells assessed as inhibition of intracellular ROS generation up to 25 ug/ml incubated for 30 min prior to PMA stimulation measured after 30 min by DCFH-DA assay relative to vehicle-treated control; assay type: functional, cell-based
Candida tropicalis [9] = assay: Antifungal activity against Candida tropicalis NRRL Y-12968 at 2000 ug/ml by agar diffusion method; assay type: functional; details: read-out: IZ
SK-MEL = assay: Cytotoxicity against Homo sapiens (human) SK-MEL cells assessed as cell viability up to 25 ug/ml after 48 hr by neutral red assay; assay type: functional, cell-based
[10] = biological target: T1, Nitric oxide synthase, inducible (Mus musculus) (UniProt P29477); assay: Inhibition of iNOS in Mus musculus (mouse) RAW264.7 cells assessed as inhibition of LPS-induced nitrite production up to 25 ug/ml incubated for 30 min prior to LPS challenge measured after 24 hr by Griess assay relative to vehicle-treated control; assay type: cell-based
T1 sequence (whole entry): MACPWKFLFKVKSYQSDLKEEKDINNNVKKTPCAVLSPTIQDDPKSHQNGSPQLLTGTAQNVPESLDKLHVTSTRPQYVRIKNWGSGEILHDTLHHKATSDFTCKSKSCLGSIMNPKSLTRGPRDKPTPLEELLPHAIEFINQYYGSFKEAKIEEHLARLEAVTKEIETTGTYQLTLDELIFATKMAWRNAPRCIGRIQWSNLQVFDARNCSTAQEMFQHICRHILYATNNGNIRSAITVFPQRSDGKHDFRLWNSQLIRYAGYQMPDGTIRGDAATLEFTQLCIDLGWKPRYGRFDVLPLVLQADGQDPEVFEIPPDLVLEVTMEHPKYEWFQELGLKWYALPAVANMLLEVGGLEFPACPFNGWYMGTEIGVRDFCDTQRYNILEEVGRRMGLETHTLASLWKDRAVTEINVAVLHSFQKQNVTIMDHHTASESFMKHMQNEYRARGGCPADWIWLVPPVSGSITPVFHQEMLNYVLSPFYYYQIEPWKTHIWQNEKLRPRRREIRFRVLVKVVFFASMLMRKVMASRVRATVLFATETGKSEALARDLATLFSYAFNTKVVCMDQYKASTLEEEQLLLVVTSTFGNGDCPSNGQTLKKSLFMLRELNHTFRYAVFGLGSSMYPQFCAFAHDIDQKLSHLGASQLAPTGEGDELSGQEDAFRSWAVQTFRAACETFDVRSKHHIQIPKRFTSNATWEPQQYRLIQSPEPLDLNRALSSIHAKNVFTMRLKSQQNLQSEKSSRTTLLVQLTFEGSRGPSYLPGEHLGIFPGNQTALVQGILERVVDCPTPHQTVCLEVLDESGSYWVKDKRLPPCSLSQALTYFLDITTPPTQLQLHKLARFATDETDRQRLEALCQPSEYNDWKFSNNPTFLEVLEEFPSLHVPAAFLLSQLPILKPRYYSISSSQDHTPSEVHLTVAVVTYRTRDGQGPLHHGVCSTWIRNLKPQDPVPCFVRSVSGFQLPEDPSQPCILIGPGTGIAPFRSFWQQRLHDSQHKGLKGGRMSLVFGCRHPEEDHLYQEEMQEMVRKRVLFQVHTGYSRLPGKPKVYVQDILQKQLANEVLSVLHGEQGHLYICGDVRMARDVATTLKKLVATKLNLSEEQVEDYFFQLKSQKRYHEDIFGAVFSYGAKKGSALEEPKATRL

SW1353 = assay: Inhibition of PMA-induced NFkappaB activity in Homo sapiens (human) SW1353 cells up to 25 ug/ml incubated for 30 min followed by PMA induction for 8 hr by luciferase reporter gene assay; assay type: cell-based
BT-549 = assay: Cytotoxicity against Homo sapiens (human) BT549 cells assessed as cell viability up to 25 ug/ml after 48 hr by neutral red assay; assay type: functional, cell-based
Vero = assay: Cytotoxicity against Chlorocebus aethiops (African green monkey) Vero cells assessed as cell viability up to 25 ug/ml after 48 hr by neutral red assay; assay type: cell-based; details: chlorocebus sabaeus
Transcription factor Sp1 = Transcription factor Sp1 (Homo sapiens, UniProt P08047); assay: Inhibition of Sp1 (unknown origin) up to 25 ug/ml by luciferase reporter gene assay
KB = assay: Cytotoxicity against Homo sapiens (human) KB cells assessed as cell viability up to 25 ug/ml after 48 hr by neutral red assay; assay type: functional, cell-based
Botrytis cinerea = assay: Antifungal activity against Botryotinia fuckeliana at 0.3 to 30 uM after 48 to 72 hr by broth microdilution method; assay type: functional, organism-based
Colletotrichum fragariae = assay: Antifungal activity against Colletotrichum fragariae at 0.3 to 30 uM after 48 to 72 hr by broth microdilution method; assay type: functional, organism-based
[11] = biological target: T2, Nitric oxide synthase, inducible (Mus musculus, UniProt P29477); assay: Inhibition of iNOS in Mus musculus (mouse) RAW264.7 cells assessed as inhibition of LPS-induced nitrite production incubated for 30 min prior to LPS challenge measured after 24 hr by Griess assay; assay type: cell-based
T2 sequence (P29477 whole entry): T1 sequence (whole entry)

HL-60 [12] = assay: Cytotoxicity against Homo sapiens (human) HL60 cells; assay type: cell-based

Sequence of Transcription factor Sp1 (P08047 whole entry): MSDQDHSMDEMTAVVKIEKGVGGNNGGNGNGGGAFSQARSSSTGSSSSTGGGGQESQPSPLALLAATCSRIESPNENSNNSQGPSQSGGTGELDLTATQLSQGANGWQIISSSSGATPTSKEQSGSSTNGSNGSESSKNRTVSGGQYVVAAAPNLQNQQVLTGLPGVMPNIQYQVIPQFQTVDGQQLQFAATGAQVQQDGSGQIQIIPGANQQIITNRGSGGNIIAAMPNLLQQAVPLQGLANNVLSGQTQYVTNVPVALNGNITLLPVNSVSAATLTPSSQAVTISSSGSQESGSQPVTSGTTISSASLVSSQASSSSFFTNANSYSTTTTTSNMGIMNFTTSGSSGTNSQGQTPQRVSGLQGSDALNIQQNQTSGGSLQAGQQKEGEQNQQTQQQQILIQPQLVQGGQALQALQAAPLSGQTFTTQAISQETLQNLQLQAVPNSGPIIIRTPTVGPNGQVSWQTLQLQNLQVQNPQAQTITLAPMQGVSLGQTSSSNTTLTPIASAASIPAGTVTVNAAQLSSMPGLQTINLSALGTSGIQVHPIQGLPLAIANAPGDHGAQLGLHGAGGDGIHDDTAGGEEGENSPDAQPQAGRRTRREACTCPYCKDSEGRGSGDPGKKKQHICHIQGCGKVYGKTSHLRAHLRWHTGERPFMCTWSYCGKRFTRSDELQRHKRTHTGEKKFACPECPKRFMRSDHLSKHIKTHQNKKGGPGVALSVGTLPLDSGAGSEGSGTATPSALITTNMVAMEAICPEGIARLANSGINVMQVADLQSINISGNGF

Structure (SMILES) | MIC (Pichia kudriavzevii) [µg/mL] | MIC (Nakaseomyces glabratus) [µg/mL] | MIC (Candida albicans [1]) [µg/mL] | MIC (Cyberlindnera jadinii) [µg/mL] | MIC (Candida tropicalis [2]) [µg/mL] | MIC (Candida albicans [3]) [µg/mL] | MIC (Candida albicans [4]) [µg/mL] | MIC (Candida parapsilosis) [µg/mL] | Activity (RAW264.7) | zone of inhibition at 2000 µg/mL (Candida albicans [5]) [mm] | Activity (SK-OV-3) | Activity [6] | Activity (HL-60 [7]) | inhibition (HL-60 [8]) | zone of inhibition at 2000 µg/mL (Candida tropicalis [9]) [mm] | Activity (SK-MEL) | inhibition (SW1353) | Activity (BT-549) | Activity (Vero) | inhibition (INH) (Transcription factor Sp1) | other results
CC(=O)N1CCN(c2ccc(OCC3COC(Cn4ccnc4)(c4ccc(Cl)cc4Cl)O3)cc2)CC1 (stereo unspecified) [KETOCONAZOLE] | 62 (≈ 117 µM) | 31 (≈ 58.3 µM) | 125 (≈ 235 µM) | 62 (≈ 117 µM) | 62 (≈ 117 µM) | 62 (≈ 117 µM) | 16 (≈ 30.1 µM) | 125 (≈ 235 µM) | – | – | – | – | – | – | – | – | – | – | – | – | –
COc1ccc(C2OC(c3ccc(F)cc3)=NN2C(C)=O)cc1 (stereo unspecified) | 500 (≈ 1590 µM) | 250 (≈ 795 µM) | 500 (≈ 1590 µM) | 250 (≈ 795 µM) | 500 (≈ 1590 µM) | 500 (≈ 1590 µM) | 250 (≈ 795 µM) | 500 (≈ 1590 µM) | Non-toxic | 9 | inactive | Not Active | Non-toxic | inactive | 9 | inactive | inactive | inactive | Not Active | Not Active | inhibition [10]: inactive; Activity (KB): inactive
CC(=O)N1N=C(c2ccc(F)cc2)OC1c1ccc(Br)cc1 (stereo unspecified) | 500 (≈ 1380 µM) | 500 (≈ 1380 µM) | 500 (≈ 1380 µM) | 500 (≈ 1380 µM) | 250 (≈ 688 µM) | 1000 (≈ 2750 µM) | 250 (≈ 688 µM) | 500 (≈ 1380 µM) | Non-toxic | 9 | inactive | Not Active | Non-toxic | inactive | 9 | inactive | inactive | inactive | Not Active | Not Active | Activity (Botrytis cinerea): inactive; Activity (KB): inactive; Activity (Colletotrichum fragariae): inactive; IC50 [11]: > 68.8 µM
CN(C)c1ccc(/C=C/C=N/NC(=O)c2ccc(F)cc2)cc1 | 500 (≈ 1610 µM) | 500 (≈ 1610 µM) | 500 (≈ 1610 µM) | 500 (≈ 1610 µM) | 500 (≈ 1610 µM) | 500 (≈ 1610 µM) | 500 (≈ 1610 µM) | 500 (≈ 1610 µM) | Non-toxic | 9 | inactive | Not Active | Non-toxic | inactive | 9 | inactive | inactive | inactive | Not Active | Not Active | inhibition [10]: inactive; Activity (KB): inactive
CC(=O)N1N=C(c2ccc(F)cc2)OC1c1ccc(F)cc1 (stereo unspecified) | 500 (≈ 1650 µM) | 500 (≈ 1650 µM) | 500 (≈ 1650 µM) | 500 (≈ 1650 µM) | 500 (≈ 1650 µM) | 500 (≈ 1650 µM) | 500 (≈ 1650 µM) | 500 (≈ 1650 µM) | Non-toxic | 9 | inactive | Not Active | Non-toxic | inactive | 9 | inactive | inactive | inactive | Not Active | Not Active | inhibition [10]: inactive; Activity (KB): inactive
CC(=O)N1N=C(c2ccc(F)cc2)OC1/C=C/c1ccc(N(C)C)cc1 (stereo unspecified) | 125 (≈ 354 µM) | 500 (≈ 1410 µM) | 500 (≈ 1410 µM) | 250 (≈ 707 µM) | 125 (≈ 354 µM) | 500 (≈ 1410 µM) | 500 (≈ 1410 µM) | 250 (≈ 707 µM) | Non-toxic | 9 | inactive | Not Active | Non-toxic | inactive | 9 | inactive | inactive | inactive | Not Active | Not Active | inhibition [10]: inactive; Activity (KB): inactive
COc1cccc2c1C(=O)c1c(O)c3c(c(O)c1C2=O)C[C@@](O)(C(=O)CO)C[C@@H]3O[C@H]1C[C@H](N)[C@H](O)[C@H](C)O1 [DOXORUBICIN] | – | – | – | – | – | – | – | – | – | – | – | – | – | – | – | – | – | – | – | – | IC50 (HL-60 [12]): 0.16 µg/mL (≈ 0.294 µM)
